Source: patent US9049863B2, “Substituted (3R,4R)-4-cyan-3,4-diphenylbutanoates, method for the production thereof and use thereof as herbicides and plant growth regulators” (Bayer Intellectual Property GmbH, priority 2011, dated 2015)

Tested on: a plurality of harmful plants
Assay: Herbicidal pre-emergence action
Format: in vivo
Details: 320 g or less of active substance per hectare
From the text: Seeds of monocotyledonous and dicotyledonous weed plants and crop plants are placed in wood-fiber pots in sandy loam and covered with soil. The compounds (I) according to the invention, formulated in the form of wettable powders (WP), are then applied as aqueous suspension or emulsion at a water application rate of 600 l/ha (converted) with the addition of 0.2% of wetting agent to the surface of the covering soil.
After the treatment, the pots are placed in a greenhouse and kept under good growth conditions for the test plants. After about 3 weeks, the effect of the preparations is scored visually in comparison with untreated controls as percentages. For example, 100% activity=the plants have died, 50% herbicidal activity or damage=the plants have been reduced by 50% or the plant mass has been reduced by 50%, 0% activity=like control plants.

Row | Compound | herbicidal activity against a plurality of harmful plants
1 | COC(=O)C[C@@H](c1ccccc1F)[C@@H](C#N)c1cccc(F)c1 [Example 13] | good herbicidal activity
2 | COC(=O)C[C@@H](c1cc(F)ccc1F)[C@@H](C#N)c1ccc(Cl)c(Cl)c1 [Example 208] | good herbicidal activity
3 | CC(C)OC(=O)C[C@@H](c1cccc(F)c1)[C@@H](C#N)c1ccc(F)c(F)c1 [Example 85] | good herbicidal activity
4 | COC(=O)C[C@@H](c1cccc(Cl)c1)[C@@H](C#N)c1cccc(C#N)c1 [Example 326] | good herbicidal activity
5 | COC(=O)C[C@@H](c1cccc(F)c1)[C@@H](C#N)c1ccccc1 [Example 7] | good herbicidal activity
6 | COC(=O)C[C@@H](c1cccc(Cl)c1)[C@@H](C#N)c1ccc(F)c(C#N)c1 [Example 340] | good herbicidal activity
7 | COC(=O)C[C@@H](c1c(F)cccc1F)[C@@H](C#N)c1ccc(F)c(F)c1 [Example 174] | good herbicidal activity
8 | COC(=O)C[C@@H](c1ccc(Cl)c(F)c1)[C@@H](C#N)c1ccc(F)c(F)c1 [Example 16] | good herbicidal activity
9 | COC(=O)C[C@@H](c1ccc(OC)c(F)c1)[C@@H](C#N)c1ccc(F)c(F)c1 [Example 390] | good herbicidal activity
10 | N#C[C@@H](c1cccc(F)c1)[C@@H](CC(=O)OCCSc1ccccc1)c1ccc(Cl)cc1 [Example 54] | good herbicidal activity
11 | COC(=O)C[C@@H](c1cc(F)ccc1F)[C@@H](C#N)c1ccc(F)c(Br)c1 [Example 358] | good herbicidal activity
12 | N#C[C@@H](c1ccc(F)c(F)c1)[C@@H](CC(=O)O)c1cccc(Cl)c1 [Example 107, (3R,4R)-3-(3-Chlorophenyl)-4-cyano-4-(3,4-difluorophenyl)butanoic acid] | good herbicidal activity
13 | CC(C)COC(=O)C[C@@H](c1cccc(F)c1)[C@@H](C#N)c1ccc(F)c(F)c1 [Example 87] | good herbicidal activity
14 | CCCCOC(=O)C[C@@H](c1cccc(Cl)c1)[C@@H](C#N)c1ccc(F)c(F)c1 [Example 111] | good herbicidal activity
15 | N#C[C@@H](c1cccc(F)c1)[C@@H](CC(=O)OC1COC1)c1ccc(Cl)cc1 [Example 53] | good herbicidal activity
16 | COC(=O)C[C@@H](c1cc(F)ccc1F)[C@@H](C#N)c1cccc(C#N)c1 [Example 330] | good herbicidal activity
17 | COC(=O)C[C@@H](c1cccc(F)c1F)[C@@H](C#N)c1cccc(F)c1 [Example 18] | good herbicidal activity
18 | CCOC(=O)C[C@@H](c1c(F)cccc1F)[C@@H](C#N)c1ccc(F)c(F)c1 [Example 283] | good herbicidal activity
19 | COC(=O)C[C@@H](c1cc(F)cc(Cl)c1)[C@@H](C#N)c1cccc(Cl)c1 [Example 26] | good herbicidal activity

Row | Compound | herbicidal activity against a plurality of harmful plants
20 | COC(=O)C[C@@H](c1cc(F)cc(F)c1)[C@@H](C#N)c1ccc(F)cc1 [Example 19] | good herbicidal activity
21 | COC(=O)C[C@@H](c1cccc(Cl)c1)[C@@H](C#N)c1ccc(Cl)c(F)c1 [Example 27] | good herbicidal activity
22 | COC(=O)C[C@@H](c1cccc(F)c1F)[C@@H](C#N)c1ccc(F)c(F)c1 [Example 24] | good herbicidal activity
23 | COC(=O)C[C@@H](c1ccc(F)cc1)[C@@H](C#N)c1cccc(F)c1 [Example 20] | good herbicidal activity
24 | COC(=O)C[C@@H](c1cccc(F)c1)[C@@H](C#N)c1ccc(F)c(C#N)c1 [Example 339] | good herbicidal activity
25 | COC(=O)C[C@@H](c1ccc(Cl)cc1)[C@@H](C#N)c1ccc(F)c(C#N)c1 [Example 343] | good herbicidal activity
26 | CCOC(=O)C[C@@H](c1cccc(F)c1)[C@@H](C#N)c1ccc(F)c(F)c1 [Example 83] | good herbicidal activity
27 | COC(=O)C[C@@H](c1cccc(F)c1)[C@@H](C#N)c1cccc(Br)c1 [Example 11] | good herbicidal activity
28 | COC(=O)C[C@@H](c1cc(F)cc(Cl)c1)[C@@H](C#N)c1ccc(F)c(F)c1 [Example 21] | good herbicidal activity
29 | CCCOC(=O)C[C@@H](c1cccc(F)c1)[C@@H](C#N)c1ccc(F)c(F)c1 [Example 84] | good herbicidal activity
30 | COC(=O)C[C@@H](c1cccc(Cl)c1)[C@@H](C#N)c1ccc(F)cc1 [Example 15] | good herbicidal activity
31 | COC(=O)C[C@@H](c1ccc(Cl)cc1)[C@@H](C#N)c1ccc(F)c(F)c1 [Example 3] | good herbicidal activity
32 | COC(=O)C[C@@H](c1c(F)cccc1F)[C@@H](C#N)c1cccc(F)c1 [Example 162] | good herbicidal activity
33 | COC(=O)C[C@@H](c1cccc(F)c1)[C@@H](C#N)c1cccc(Cl)c1 [Example 5] | good herbicidal activity
34 | COC(=O)C[C@@H](c1cccc([N+](=O)[O-])c1)[C@@H](C#N)c1ccc(F)c(F)c1 [Example 28] | good herbicidal activity
35 | COC(=O)C[C@@H](c1ccccc1F)[C@@H](C#N)c1ccc(F)c(F)c1 [Example 17] | good herbicidal activity
36 | COC(=O)C[C@@H](c1ccc(Br)cc1)[C@@H](C#N)c1cccc(F)c1 [Example 4] | good herbicidal activity
37 | COC(=O)C[C@@H](c1ccc(Cl)cc1)[C@@H](C#N)c1cccc(C#N)c1 [Example 329] | good herbicidal activity
38 | COC(=O)C[C@@H](c1cccc(F)c1)[C@@H](C#N)c1ccc(F)c(Cl)c1 [Example 30] | good herbicidal activity

Row | Compound | herbicidal activity against a plurality of harmful plants
39 | COC(=O)C[C@@H](c1ccccc1)[C@@H](C#N)c1ccc(F)c(F)c1 [Example 29] | good herbicidal activity
40 | COC(=O)C[C@@H](c1cccc(Cl)c1)[C@@H](C#N)c1cccc(F)c1 [Example 9] | good herbicidal activity
41 | N#C[C@@H](c1cccc(F)c1)[C@@H](CC(=O)OCC[S+]([O-])c1ccccc1)c1ccc(Cl)cc1 (some centres unmarked) [Example 55] | good herbicidal activity
42 | COC(=O)C[C@@H](c1cc(F)ccc1F)[C@@H](C#N)c1ccc(F)c(F)c1 [Example 25] | good herbicidal activity
43 | COC(=O)C[C@@H](c1cccc(F)c1)[C@@H](C#N)c1ccc(F)cc1 [Example 8] | good herbicidal activity
44 | COC(=O)C[C@@H](c1cc(F)cc(Cl)c1)[C@@H](C#N)c1cccc(F)c1 [Example 22] | good herbicidal activity
45 | COC(=O)C[C@@H](c1ccc(Cl)cc1)[C@@H](C#N)c1cc(F)c(F)c(F)c1 [Example 14] | good herbicidal activity
46 | COC(=O)C[C@@H](c1cccc(F)c1)[C@@H](C#N)c1ccc(F)c(F)c1 [Example 6] | good herbicidal activity
47 | CCOC(=O)C[C@@H](c1ccc(OC)cc1)[C@@H](C#N)c1ccc(F)c(F)c1 [Example 31] | good herbicidal activity
48 | COC(=O)C[C@@H](c1c(F)cccc1F)[C@@H](C#N)c1ccc(F)c(Cl)c1 [Example 227] | good herbicidal activity
49 | CCOC(=O)C[C@@H](c1cccc(Cl)c1)[C@@H](C#N)c1ccc(F)c(F)c1 [Example 108] | good herbicidal activity
50 | COC(=O)C[C@@H](c1cccc(F)c1)[C@@H](C#N)c1cccc(F)c1 [Example 2] | good herbicidal activity
51 | CC(C)COC(=O)C[C@@H](c1cccc(Cl)c1)[C@@H](C#N)c1ccc(F)c(F)c1 [Example 112] | good herbicidal activity
52 | COC(=O)C[C@@H](c1cccc(Cl)c1)[C@@H](C#N)c1ccc(F)c(F)c1 [Example 10, Methyl (3R,4R)-3-(3-chlorophenyl)-4-cyano-4-(3,4-difluorophenyl)butanoate] | good herbicidal activity
53 | COC(=O)C[C@@H](c1cc(F)ccc1F)[C@@H](C#N)c1ccc(F)c(C#N)c1 [Example 344] | good herbicidal activity
54 | COC(=O)C[C@@H](c1cc(F)ccc1F)[C@@H](C#N)c1cccc(F)c1 [Example 23] | good herbicidal activity
55 | COC(=O)C[C@@H](c1cccc(F)c1)[C@@H](C#N)c1cc(F)cc(F)c1 [Example 12] | good herbicidal activity
56 | COC(=O)C[C@@H](c1c(F)cccc1F)[C@@H](C#N)c1ccc(F)c(Br)c1 [Example 359] | good herbicidal activity
